This test deals with B16M-F10 cells / HSE. Kind of test: Adhesion in vitro of B16M-F10 cells to hepatic sinusoidal endothelium. The class given is cell-based, mice. As to conditions: for inhibition of adhesion of tumor cells to the endothelium: brief exposure (60 minutes), TNF and IFN present; for Tumor cells Adhesion (%): t-RESV 12 μM, t-PTER 40 μM, QUER 20 μM, 60 minutes exposure, cytokine-treated HSE, no polyphenol = 100%. The text has this: C57BL/6J mice were used (male, 10 to 12 weeks old) from IFFA Credo (L'Arbreole, France). The hepatic sinusoidal endothelium (HSE) was separated and identified as described previously (20). The sinusoidal cells were separated in a gradient of 17.5% metrizamide (w/v). The HSE cultures were established and maintained in pyrogen-free DMEM supplemented as described previously for the B16M-F10 cells. Differential adhesion of the endothelial cells to the collagen matrix and washing permitted complete removal of other types of sinusoidal cells (Kupffer's cells, astrocytes, lymphocytes) from the culture flasks.
The B16M-F10 cells were labeled with 2′,7′-bis-(2-carboxyethyl)-5-(and -6)-carboxyfluorescein acetoxymethyl ester (BCECF-AM; Moleculer Probes, Eugene, Oreg., USA) (10^6 cells were incubated for 20 minutes at 37° C. in 1 ml of DMEM buffered with HEPES that contained 50 μg of BCECF-AM and 5 μl of DMSO). After washing, the cells that contained BCECF-AM were resuspended in DMEM buffered with HEPES without phenol red at a concentration of 2.5×10^6 cells/ml and were added (0.2 ml/well) to the endothelial cell culture (seeded 24 hours previously), as well as to wells of plastic and controls previously treated with collagen. The plates were then incubated at 37° C. and, 20 minutes later, the wells were washed three times with fresh medium, and then their fluorescence was read using a Fluoroskan Ascent FL (Labsystems, Manchester, UK). The number of adhering tumor cells was quantified with arbitrary fluorescence units based on the percentage relative to the initial number of B16M-F10 cells added to the HSE culture (20). The damage caused to the B16M-F10 cells during their adhesion in vitro to the HSE was evaluated as described previously (21) using tumor cells labeled with calcein-AM (Molecular Probes, Eugene, Oreg., USA). The integrity of the B16M-F10 cells cultivated on their own was evaluated by exclusion of trypan blue and measuring the lactate dehydrogenase released to the extracellular medium (22). The other reagents used in the tumoral cytotoxicity experiments were from Sigma.
Recombinant murine TNF- (2×10^7 U/mg of protein) and recombinant murine interferon-(IFN-; 10^5 U/mg of protein) were obtained from Sigma. The concentrated solutions (5×10^5 U TNF-/ml and 25×10^4 U IFN-/ml) were diluted in sterile saline (0.9% NaCl), adjusted to pH 7.0, and stored at 4° C.
In addition to the effect of PTER+QUER on tumor growth, we investigated the antimetastatic potential. The interaction of B16M-F10 and HSE cells was studied in vitro first. On the basis of the results obtained previously, we chose brief periods of exposure (60 minutes) of the metastatic cells to the polyphenols (at the concentrations measured in the plasma after their i.v. administration). Since the interaction of the metastatic cells with the endothelial cells and Kupffer's cells activates the local release of proinflammatory cytokines [promoters of adhesion of cancer cells to the endothelium and of invasion (14, 31)], we investigated the effect of the polyphenols on the adhesion of B16M-F10 cells to the HSE in the presence of TNF- and IFN-—this combination of cytokines induces maximum activation of the HSE (see ref. 20 and the references therein) (Table 3). […] A similar effect (˜60% inhibition of adhesion) was found in the presence of t-PTER (Table 3). […]

For `COc1cc(/C=C/c2ccc(O)cc2)cc(OC)c1` [PTER, pterostilbene], the “inhibition of adhesion of tumor cells to the endothelium” value is given as roughly 60% and the “Tumor cells Adhesion (%)” value is listed as 40 ± 6 %. For the compound `O=c1c(O)c(-c2ccc(O)c(O)c2)oc2cc(O)cc(O)c12` [QUER, quercetin], the “inhibition of adhesion of tumor cells to the endothelium” value is recorded as “without affecting the level of adhesion” and the “Tumor cells Adhesion (%)” value is 98 ± 11%. With `Oc1ccc(C=Cc2cc(O)cc(O)c2)cc1` [RESV, resveratrol, reference compound], the “Tumor cells Adhesion (%)” value came to 53 ± 7 %.

The values are drawn from patent publication US8227510B2, “Combine use of pterostilbene and quercetin for the production of cancer treatment medicaments” (Universitat de Valencia, priority 2004, dated 2012).
